# Assay results reported in patent US20030162777A1, “Novel N-acylated heterocycles” (Recordati S.A., priority 2001, published 2003).
# pKi: −log10 of the molar value.
# Molecular target: T1, human 5HT1A-serotonergic receptor (Homo sapiens, UniProt P08908)
# T1 construct: expressed in transfected cells; host or cells: HeLa (human cell line), stably transfected; cell membranes used
# T1 sequence (P08908 1-422): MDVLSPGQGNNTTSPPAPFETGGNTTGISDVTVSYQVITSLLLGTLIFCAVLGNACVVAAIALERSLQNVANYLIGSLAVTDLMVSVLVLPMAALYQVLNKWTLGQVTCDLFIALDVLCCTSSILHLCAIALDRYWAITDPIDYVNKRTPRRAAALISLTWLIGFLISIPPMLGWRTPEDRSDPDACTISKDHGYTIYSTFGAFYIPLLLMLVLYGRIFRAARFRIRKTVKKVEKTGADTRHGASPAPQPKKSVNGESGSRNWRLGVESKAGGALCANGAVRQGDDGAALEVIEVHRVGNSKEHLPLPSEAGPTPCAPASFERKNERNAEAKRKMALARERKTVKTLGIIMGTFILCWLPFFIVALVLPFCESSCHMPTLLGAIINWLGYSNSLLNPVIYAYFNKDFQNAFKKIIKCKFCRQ
# Assay: Radioligand binding to recombinant 5-HT1A receptors
# Conditions: [3H]8-OH-DPAT 1 nM, membranes of HeLa cells with human 5-HT1A receptor; Ki from IC50 by Cheng & Prusoff; read-out: Binding affinity for 5HT1A receptors, Ki
# Summary of the method: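 Displacement of 1 nM [3H]8-OH-DPAT (30 min, 30 °C, Tris-HCl pH 7.4 with MgCl2 and pargyline) from recombinant human 5-HT1A in transfected HeLa membranes, stopped by filtration. Specific binding defined against 10 μM 5-HT; IC50 by nonlinear fitting, then Ki by Cheng–Prusoff.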
row,pKi,SMILES
1,7.74,"O=C(c1ccc(N2CCOCC2)nc1)N1c2ccccc2CCC1CN1CCN(c2cccc3[nH]ccc23)CC1 (centres unmarked) [Example 68A52, 1-(4-Indolyl)-4-[1-[2-(4-morpholinyl)pyridine-5-carbonyl]-1,2,3,4-tetrahydroquinoline-2-ylmethyl]piperazine]"
2,7.38,"O=C1CCC(CC(=O)N2c3ccccc3CCC2CN2CCN(c3cccc4[nH]ccc34)CC2)N1 (centres unmarked) [Example 68A54, 1-(4-Indolyl)-4-[1-[2-(5-oxopyrrolidin-2yl)acetyl]-1,2,3,4-tetrahydroquinoline-2-ylmethyl]piperazine]"
3,7.84,"Cc1oc(S(=O)(=O)N2CCCCC2)cc1C(=O)N1c2ccccc2CCC1CN1CCN(c2cccc3[nH]ccc23)CC1 (centres unmarked) [Example 68A55, 1-(4-Indolyl)-4-[1-(2-methyl-5-piperidin-1-ylsulfonylfuran-3-carbonyl)-1,2,3,4-tetrahydroquinoline-2-ylmethyl]piperazine]"
4,7.57,"Cc1oc(S(=O)(=O)N2CCOCC2)cc1C(=O)N1c2ccccc2CCC1CN1CCN(c2cccc3[nH]ccc23)CC1 (centres unmarked) [Example 68A56, 1-(4-Indolyl)-4-[1-(2-methyl-5-morpholin-4-ylsulfonylfuran-3-carbonyl)-1,2,3,4-tetrahydroquinoline-2-ylmethyl]piperazine]"
5,7.48,"Cc1ccc(S(=O)(=O)n2ccc(C(=O)N3c4ccccc4CCC3CN3CCN(c4cccc5[nH]ccc45)CC3)c2)cc1 (centres unmarked) [Example 68A57, 1-(4-Indolyl)-4-[1-[1-(4-methylphenylsulphonyl)pyrrole-3-carbonyl]-1,2,3,4-tetrahydroquinoline-2-ylmethyl]piperazine]"
6,7.33,"Cc1oc(S(=O)(=O)N2CCCC2)cc1C(=O)N1c2ccccc2CCC1CN1CCN(c2cccc3[nH]ccc23)CC1 (centres unmarked) [Example 68A59, 1-(4-Indolyl)-4-[1-(2-methyl-5-pyrrolidin-1-ylsulfonylfuran-3-carbonyl)-1,2,3,4-tetrahydroquinoline-2-ylmethyl]piperazine]"
7,7.71,"O=C(CCOc1ccccc1)N1c2ccccc2CCC1CN1CCN(c2cccc3[nH]ccc23)CC1 (centres unmarked) [Example 68A61, 1-(4-Indolyl)-4-[1-(3-phenoxypropionyl)-1,2,3,4-tetrahydroquinoline-2-ylmethyl]piperazine]"
8,7.71,"O=C(CCCc1ccccc1)N1c2ccccc2CCC1CN1CCN(c2cccc3[nH]ccc23)CC1 (centres unmarked) [Example 68A66, 1-(4-Indolyl)-1-[1-(4-phenylbutanoyl)-1,2,3,4-tetrahydroquinoline-2-ylmethyl]piperazine]"
9,8.04,"COc1cccc(C(=O)N2c3ccccc3CCC2CN2CCN(c3cccc4[nH]ccc34)CC2)c1 (centres unmarked) [Example 68A67, 1-(4-Indolyl)-4-[1-(3-methoxybenzoyl)-1,2,3,4-tetrahydroquinoline-2-ylmethyl]piperazine]"
10,8.12,"O=C(c1ccc(O)cc1)N1c2ccccc2CCC1CN1CCN(c2cccc3[nH]ccc23)CC1 (centres unmarked) [Example 68A68, 1-[1-(4-Hydroxybenzoyl)-1,2,3,4-tetrahydroquinoline-2-ylmethyl]-4-(4-indolyl)piperazine]"
11,8.38,"CCOc1ccc(C(=O)N2c3ccccc3CCC2CN2CCN(c3cccc4[nH]ccc34)CC2)cc1 (centres unmarked) [Example 68A69, 1-[1-(4-Ethoxybenzoyl)-1,2,3,4-tetrahydroquinoline-2-ylmethyl]-4-(4-indolyl)piperazine]"
12,8.28,"Cc1ccc(C(=O)N2c3ccccc3CCC2CN2CCN(c3cccc4[nH]ccc34)CC2)cc1 (centres unmarked) [Example 68A70, 1-(4-Indolyl)-4-[1-(4-methylbenzoyl)-1,2,3,4-tetrahydroquinoline-2-ylmethyl]piperazine]"
13,7.63,"CS(=O)(=O)N(CC(=O)N1c2ccccc2CCC1CN1CCN(c2cccc3[nH]ccc23)CC1)Cc1ccccc1 (centres unmarked) [Example 68A71, 1-[1-[2-(N-Benzyl-N-methanesulphonylamino)acetyl]-1,2,3,4-tetrahydroquinoline-2-ylmethyl]-4-(4-indolyl)piperazine]"
14,7.75,"O=C1CC[C@H](C(=O)N2c3ccccc3CCC2CN2CCN(c3cccc4[nH]ccc34)CC2)N1 (stereo partly drawn) [Example 68A73, 1-(4-Indolyl)-4-[1-[(2R)-5-oxopyrrolidine-2-ylcarbonyl]-1,2,3,4-tetrahydroquinoline-2-ylmethyl]piperazine]"
15,8.04,"O=C(c1ccc[nH]1)N1c2ccccc2CCC1CN1CCN(c2cccc3[nH]ccc23)CC1 (centres unmarked) [Example 68A, 1-(4-Indolyl)-4-[1-(2-pyrrolylcarbonyl)-1,2,3,4-tetrahydroquinoline-2-ylmethyl]piperazine]"
16,7.76,"Cc1cccc(NC(=O)N2c3ccccc3CCC2CN2CCN(c3cccc4[nH]ccc34)CC2)c1 (centres unmarked) [Example 69A1, 1-(4-Indolyl)-4-[1-(3-methylphenylaminocarbonyl)-1,2,3,4-tetrahydroquinoline-2-ylmethyl]piperazine]"
17,7.62,"O=C(Nc1ccc(F)cc1)N1c2ccccc2CCC1CN1CCN(c2cccc3[nH]ccc23)CC1 (centres unmarked) [Example 69A2, 1-[1-(4-Fluorophenylaminocarbonyl)-1,2,3,4-tetrahydroquinoline-2-ylmethyl)-4-(4-indolyl)piperazine]"
18,8.03,"Cc1ccc(NC(=O)N2c3ccccc3CCC2CN2CCN(c3cccc4[nH]ccc34)CC2)cc1 (centres unmarked) [Example 69A3, 1-(4-Indolyl)-4-[1-(4-methylphenylaminocarbonyl)-1,2,3,4-tetrahydroquinoline-2-ylmethyl]piperazine]"
19,7.44,"CC(C)NC(=O)N1c2ccccc2CCC1CN1CCN(c2cccc3[nH]ccc23)CC1 (centres unmarked) [Example 69A7, 1-(4-Indolyl)-4-[1-(1-methylethylaminocarbonyl)-1,2,3,4-tetrahydroquinoline-2-ylmethyl]piperazine]"
20,7.40,"CNC(=S)N1c2ccccc2CCC1CN1CCN(c2cccc3[nH]ccc23)CC1 (centres unmarked) [Example 69A8, 1-(4-Indolyl)-4-[1-methylaminothiocarbonyl-1,2,3,4-tetrahydroquinoline-2-ylmethyl)piperazine]"
21,7.59,"O=C(NCc1ccccc1)N1c2ccccc2CCC1CN1CCN(c2cccc3[nH]ccc23)CC1 (centres unmarked) [Example 69A9, 1-(1-Benzylaminocarbonyl-1,2,3,4-tetrahydroquinoline-2-ylmethyl)-4-(4-indolyl)piperazine]"
22,7.87,"O=C(NCCc1ccccc1)N1c2ccccc2CCC1CN1CCN(c2cccc3[nH]ccc23)CC1 (centres unmarked) [Example 69A10, 1(4-Indolyl)-4-[1-(2-phenylethylaminocarbonyl)-1,2,3,4-tetrahydroquinoline-2-ylmethyl]piperazine]"
23,7.98,"CCCCCNC(=O)N1c2ccccc2CCC1CN1CCN(c2cccc3[nH]ccc23)CC1 (centres unmarked) [Example 69A11, 1-(4-Indolyl)-4-(1-pentylaminocarbonyl-1,2,3,4-tetrahydroquinoline-2-ylmethyl]piperazine]"
24,8.68,"CC(C)(C)NC(=O)N1c2ccccc2CCC1CN1CCN(c2cccc3[nH]ccc23)CC1 (centres unmarked) [Example 69A12, 1-[1-(1,1-Dimethylethylaminocarbonyl)-1,2,3,4-tetrahydroquinoline-2-ylmethyl]-1-(4-indolyl)piperazine]"
25,7.67,"COc1ccc(NC(=O)N2c3ccccc3CCC2CN2CCN(c3cccc4[nH]ccc34)CC2)cc1 (centres unmarked) [Example 69A13, 1(4-Indolyl)-4-[1-(4-methoxyphenylaminocarbonyl)-1,2,3,4-tetrahydroquinoline-2-ylmethyl]piperazine]"
26,8.14,"Cc1ccccc1NC(=O)N1c2ccccc2CCC1CN1CCN(c2cccc3[nH]ccc23)CC1 (centres unmarked) [Example 69A, 1-(4-Indolyl)-4-[1-(2-methylphenylaminocarbonyl)-1,2,3,4-tetrahydroquinoline-2-ylmethyl]piperazine]"
27,7.73,"O=S(=O)(c1cccs1)N1c2ccccc2CCC1CN1CCN(c2cccc3[nH]ccc23)CC1 (centres unmarked) [Example 70A1, 1-(4-Indolyl)-4-[1-(2-thienylsulphonyl)-1,2,3,4-tetrahydroquinoline-2-ylmethyl]piperazine]"
28,7.73,"COc1ccc(S(=O)(=O)N2c3ccccc3CCC2CN2CCN(c3cccc4[nH]ccc34)CC2)cc1 (centres unmarked) [Example 70A2, 1(4-Indolyl)-4-[1-(4-methoxyphenylsulphonyl)-1,2,3,4-tetrahydroquinoline-2-ylmethyl]piperazine]"

row,SMILES,pKi
1,"O=C(COc1ccccc1Cl)N1c2ccccc2CCC1CN1CCN(c2cccc3[nH]ccc23)CC1 (centres unmarked) [Example 68A50, 1-[1-[2-(2-Chlorophenoxy)acetyl]-1,2,3,4-tetrahydroquinoline-2-ylmethyl]-4-(4-indolyl)piperazine]",7.56
2,"O=C(COc1ccc(Cl)cc1)N1c2ccccc2CCC1CN1CCN(c2cccc3[nH]ccc23)CC1 (centres unmarked) [Example 68A51, 1-[1-[2-(4-Chlorophenoxy)acetyl]-1,2,3,4-tetrahydroquinoline-2-ylmethyl]-4-(4-indolyl)piperazine]",7.81
3,"O=C(Cc1ccccc1F)N1c2ccccc2CCC1CN1CCN(c2cccc3[nH]ccc23)CC1 (centres unmarked) [Example 68A63, 1-(4-Indolyl)-4-[1-[2-(2-fluorophenylacetyl)]-1,2,3,4-tetrahydroquinoline-2-ylmethyl]piperazine]",8.06
4,"O=C(Cc1ccccc1C(F)(F)F)N1c2ccccc2CCC1CN1CCN(c2cccc3[nH]ccc23)CC1 (centres unmarked) [Example 68A64, 1-(4-Indolyl)-4-[1-[2-(2-trifluoromethylphenylacetyl)]-1,2,3,4-tetrahydroquinoline-2-ylmethyl]piperazine]",7.87
